# Biological target: PRMT3 (Homo sapiens, UniProt O60678)
# Test: Fluorescence-based SAHH-coupled PRMT3 methylation assay
# Format: biochemical
# Sequence of PRMT3 (O60678 211-531): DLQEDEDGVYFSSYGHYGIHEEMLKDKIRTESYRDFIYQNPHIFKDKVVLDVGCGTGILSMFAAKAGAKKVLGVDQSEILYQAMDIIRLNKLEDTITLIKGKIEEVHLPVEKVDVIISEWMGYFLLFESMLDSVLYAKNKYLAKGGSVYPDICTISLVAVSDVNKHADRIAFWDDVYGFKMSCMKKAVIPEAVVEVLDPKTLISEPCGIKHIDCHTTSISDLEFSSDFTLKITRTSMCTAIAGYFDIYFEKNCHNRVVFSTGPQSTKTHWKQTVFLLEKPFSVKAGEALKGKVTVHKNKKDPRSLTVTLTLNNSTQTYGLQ
fold reduction in PRMT3 inhibition (compared to YD1113),SMILES,further results
,Nc1ncnc2c1ncn2[C@@H]1O[C@H](CSCCNC(=O)Nc2ccc(Cl)cc2)[C@@H](O)[C@H]1O [Compound 1j],fold reduction in PRMT3 inhibition (compared to 1i): 10 fold
,Nc1ncnc2c1ncn2[C@@H]1O[C@H](CSCCNC(=O)NCc2ccccc2)[C@@H](O)[C@H]1O [Compound 1c],fold increased inhibition for PRMT3 (compared to 1b (linker 3C to 2C)): 140 fold
4 fold,Nc1ncnc2c1ncn2[C@@H]1O[C@H](CSCCNC(=O)Nc2ccccc2)[C@@H](O)[C@H]1O [Compound 1h],
over 10 fold,Nc1ncnc2c1ncn2[C@@H]1O[C@H](CSCCNC(=O)NCc2ccc(F)cc2)[C@@H](O)[C@H]1O [Compound 1e],
4 fold,Nc1ncnc2c1ncn2[C@@H]1O[C@H](CSCCNC(=O)Nc2ccc(F)cc2)[C@@H](O)[C@H]1O [Compound 1i],
,Nc1ncnc2c1ncn2[C@@H]1O[C@H](CSCCNC(=O)Nc2cccc3ccccc23)[C@@H](O)[C@H]1O [Compound 1k],fold reduction in PRMT3 inhibition (compared to phenyl (1h)): over 40 fold
